# Results from PubChem BioAssay (NCI).
#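 Assay format: 96-well plates, 48-hour exposure. GI50 = concentration required for 50% inhibition of growth. The concentration for full growth arrest is given as TGI.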
# Legend:
# Test in all cases: inhibition of tumour cell growth, NCI panel, 48 h
# 786-0 renal = system: 786-0 renal
# A498 renal = system: A498 renal
# A549 NSCLC = system: A549 NSCLC
# ACHN renal = system: ACHN renal
# BT-549 breast = system: BT-549 breast
# CAKI-1 renal = system: CAKI-1 renal
# CCRF-CEM leukemia = system: CCRF-CEM leukemia
# COLO 205 colon = system: COLO 205 colon
# DU-145 prostate = system: DU-145 prostate
# EKVX NSCLC = system: EKVX NSCLC
# HCC-2998 colon = system: HCC-2998 colon
# HCT-116 colon = system: HCT-116 colon
# HCT-15 colon = system: HCT-15 colon
# HL-60(TB) leukemia = system: HL-60(TB) leukemia
# HOP-62 NSCLC = system: HOP-62 NSCLC
# HOP-92 NSCLC = system: HOP-92 NSCLC
# HS 578T breast = system: HS 578T breast
# HT29 colon = system: HT29 colon
# IGROV1 ovarian = system: IGROV1 ovarian
# K-562 leukemia = system: K-562 leukemia
# KM12 colon = system: KM12 colon
# LOX IMVI melanoma = system: LOX IMVI melanoma
# M14 melanoma = system: M14 melanoma
# MALME-3M melanoma = system: MALME-3M melanoma
# MCF7 breast = system: MCF7 breast
# MDA-MB-231 breast = system: MDA-MB-231 breast
# MDA-MB-435 = system: MDA-MB-435
# MOLT-4 leukemia = system: MOLT-4 leukemia
# NCI-H226 lung = system: NCI-H226 lung
# NCI-H23 lung = system: NCI-H23 lung
# NCI-H460 lung = system: NCI-H460 lung
# NCI-H522 lung = system: NCI-H522 lung
# NCI/ADR-RES ovarian = system: NCI/ADR-RES ovarian
# OVCAR-3 ovarian = system: OVCAR-3 ovarian
# OVCAR-4 ovarian = system: OVCAR-4 ovarian
# OVCAR-5 ovarian = system: OVCAR-5 ovarian
# OVCAR-8 ovarian = system: OVCAR-8 ovarian
# PC-3 prostate = system: PC-3 prostate
# RPMI-8226 leukemia = system: RPMI-8226 leukemia
# RXF 393 renal = system: RXF 393 renal
# SF-268 CNS = system: SF-268 CNS
# SF-295 CNS = system: SF-295 CNS
# SF-539 CNS = system: SF-539 CNS
# SK-MEL-2 melanoma = system: SK-MEL-2 melanoma
# SK-MEL-28 melanoma = system: SK-MEL-28 melanoma
# SK-MEL-5 melanoma = system: SK-MEL-5 melanoma
# SK-OV-3 ovarian = system: SK-OV-3 ovarian
# SN12C renal = system: SN12C renal
# SNB-19 CNS = system: SNB-19 CNS
# SNB-75 CNS = system: SNB-75 CNS
# SR leukemia = system: SR leukemia
# SW-620 colon = system: SW-620 colon
# T-47D breast = system: T-47D breast
# TK-10 renal = system: TK-10 renal
# U251 CNS = system: U251 CNS
# UACC-257 melanoma = system: UACC-257 melanoma
# UACC-62 melanoma = system: UACC-62 melanoma
# UO-31 renal = system: UO-31 renal
compound,measurement,setting,value
Nc1nc2c(c3cnccc13)C(c1cccc(Br)c1)Cc1cnccc1-2 (stereo unspecified),GI50,786-0 renal,482 nM
same,TGI,786-0 renal,12600 nM
same,GI50,A498 renal,233 nM
same,TGI,A498 renal,824 nM
same,GI50,A549 NSCLC,627 nM
same,TGI,A549 NSCLC,13600 nM
same,GI50,ACHN renal,1100 nM
same,TGI,ACHN renal,12500 nM
same,GI50,BT-549 breast,526 nM
same,TGI,BT-549 breast,5480 nM
same,GI50,CAKI-1 renal,422 nM
same,TGI,CAKI-1 renal,14400 nM
same,GI50,CCRF-CEM leukemia,373 nM
same,TGI,CCRF-CEM leukemia,14100 nM
same,GI50,COLO 205 colon,273 nM
same,TGI,COLO 205 colon,1070 nM
same,GI50,DU-145 prostate,344 nM
same,TGI,DU-145 prostate,11300 nM
same,GI50,EKVX NSCLC,487 nM
same,TGI,EKVX NSCLC,21500 nM
same,GI50,HCC-2998 colon,3620 nM
same,TGI,HCC-2998 colon,18800 nM
same,GI50,HCT-116 colon,442 nM
same,TGI,HCT-116 colon,11400 nM
same,GI50,HCT-15 colon,362 nM
same,TGI,HCT-15 colon,10500 nM
same,GI50,HL-60(TB) leukemia,329 nM
same,TGI,HL-60(TB) leukemia,961 nM
same,GI50,HOP-62 NSCLC,465 nM
same,TGI,HOP-62 NSCLC,18900 nM
same,GI50,HOP-92 NSCLC,639 nM
same,TGI,HOP-92 NSCLC,16700 nM
same,GI50,HS 578T breast,423 nM
same,TGI,HS 578T breast,29200 nM
same,GI50,HT29 colon,341 nM
same,TGI,HT29 colon,1790 nM
same,GI50,IGROV1 ovarian,850 nM
same,TGI,IGROV1 ovarian,17800 nM
same,GI50,K-562 leukemia,346 nM
same,TGI,K-562 leukemia,17400 nM
same,GI50,KM12 colon,436 nM
same,TGI,KM12 colon,13600 nM
same,GI50,LOX IMVI melanoma,427 nM
same,TGI,LOX IMVI melanoma,13700 nM
same,GI50,M14 melanoma,215 nM
same,TGI,M14 melanoma,615 nM
same,GI50,MALME-3M melanoma,515 nM
same,TGI,MALME-3M melanoma,18700 nM
same,GI50,MCF7 breast,324 nM
same,TGI,MCF7 breast,12200 nM
same,GI50,MDA-MB-231 breast,1110 nM
same,TGI,MDA-MB-231 breast,15700 nM
same,GI50,MDA-MB-435,154 nM
same,TGI,MDA-MB-435,571 nM
same,GI50,MOLT-4 leukemia,418 nM
same,TGI,MOLT-4 leukemia,12100 nM
same,GI50,NCI-H226 lung,949 nM
same,TGI,NCI-H226 lung,18900 nM
same,GI50,NCI-H23 lung,635 nM
same,TGI,NCI-H23 lung,14100 nM
same,GI50,NCI-H460 lung,370 nM
same,TGI,NCI-H460 lung,11500 nM
same,GI50,NCI-H522 lung,214 nM
same,TGI,NCI-H522 lung,620 nM
same,GI50,NCI/ADR-RES ovarian,323 nM
same,TGI,NCI/ADR-RES ovarian,10200 nM
same,GI50,OVCAR-3 ovarian,339 nM
same,TGI,OVCAR-3 ovarian,14100 nM
same,GI50,OVCAR-4 ovarian,1730 nM
same,TGI,OVCAR-4 ovarian,34100 nM
same,GI50,OVCAR-5 ovarian,875 nM
same,TGI,OVCAR-5 ovarian,21800 nM
same,GI50,OVCAR-8 ovarian,780 nM
same,TGI,OVCAR-8 ovarian,44600 nM
same,GI50,PC-3 prostate,460 nM
same,TGI,PC-3 prostate,14000 nM
same,GI50,RPMI-8226 leukemia,392 nM
same,TGI,RPMI-8226 leukemia,12300 nM
same,GI50,RXF 393 renal,288 nM
same,TGI,RXF 393 renal,953 nM
same,GI50,SF-268 CNS,852 nM
same,TGI,SF-268 CNS,18300 nM
same,GI50,SF-295 CNS,271 nM
same,TGI,SF-295 CNS,1950 nM
same,GI50,SF-539 CNS,235 nM
same,TGI,SF-539 CNS,821 nM
same,GI50,SK-MEL-2 melanoma,303 nM
same,TGI,SK-MEL-2 melanoma,1910 nM
same,GI50,SK-MEL-28 melanoma,3810 nM
same,TGI,SK-MEL-28 melanoma,20300 nM
same,GI50,SK-MEL-5 melanoma,475 nM
same,TGI,SK-MEL-5 melanoma,3450 nM
same,GI50,SK-OV-3 ovarian,586 nM
same,TGI,SK-OV-3 ovarian,17100 nM
same,GI50,SN12C renal,877 nM
same,TGI,SN12C renal,22900 nM
same,GI50,SNB-19 CNS,410 nM
same,TGI,SNB-19 CNS,15200 nM
same,GI50,SNB-75 CNS,243 nM
same,TGI,SNB-75 CNS,12700 nM
same,GI50,SR leukemia,243 nM
same,TGI,SR leukemia,> 100000 nM
same,GI50,SW-620 colon,420 nM
same,TGI,SW-620 colon,17400 nM
same,GI50,T-47D breast,411 nM
same,TGI,T-47D breast,40400 nM
same,GI50,TK-10 renal,613 nM
same,TGI,TK-10 renal,13600 nM
same,GI50,U251 CNS,342 nM
same,TGI,U251 CNS,2970 nM
same,GI50,UACC-257 melanoma,12100 nM
same,TGI,UACC-257 melanoma,27000 nM
same,GI50,UACC-62 melanoma,406 nM
same,TGI,UACC-62 melanoma,14200 nM
same,GI50,UO-31 renal,1200 nM
same,TGI,UO-31 renal,15500 nM
